Experimental findings from ChEMBL document CHEMBL5316297, “Mechanistic Insight of Synthesized 1,4-Dihydropyridines as an Antidiabetic Sword against Reactive Oxygen Species” (J Med Chem, 2023) are described below.

SMILES strings stand for the structures.

Data set [1] relates to Mus musculus. Put plainly: Antidiabetic activity against high fat diet-STZ-induced diabetic Swiss albino mouse model assessed as reduction in blood glucose level at 0.2 mmol/Kg/day, po administered for 14 days relative to control. It counts as functional. On the set-up: scale not given: the % may be the effect or the level left. The note with it: time 14 day.
Data set [2] concerns Mus musculus. As to the kind of experiment: Antidiabetic activity against high fat diet-STZ-induced diabetic Swiss albino mouse model assessed as insulin resistance by measuring serum TNFalpha level at 0.2 mmol/Kg/day, po administered for 14 days by ELISA method (reference value: 376.50+/-14.50 ng/ml). The note with it: time 14 day. It counts as functional.
In data set [3] the test system is Mus musculus. Put plainly: Antioxidant activity against high fat diet-STZ-induced diabetic Swiss albino mouse model assessed as serum MDA level at 0.2 mmol/Kg/day, po administered for 14 days (reference value: 8.70+/- 0.09 nmol/ml). Format: functional. The note with it: time 14 day.
In data set [4] the test system is Mus musculus. Put plainly: Antidiabetic activity against high fat diet-STZ-induced diabetic Swiss albino mouse model assessed as insulin resistance by measuring serum IL6 level at 0.2 mmol/Kg/day, po administered for 14 days by ELISA method (reference value: 39.30+/-4.14 pg/ml). Conditions: time 14 day. Format: functional. For orientation: In an ELISA, binding on a coated surface is turned into a signal by an enzyme label.

Data set [5] deals with Mus musculus. As to the kind of experiment: Antidiabetic activity against high fat diet-STZ-induced diabetic Swiss albino mouse model assessed as reduction in blood glucose level at 0.2 mmol/Kg/day, po administered for 14 days relative to glimepiride. Format: functional. On the set-up: scale not given: the % may be the effect or the level left. Conditions: time 14 day.
Data set [6] has as its system Mus musculus. Put plainly: Antidiabetic activity against high fat diet-STZ-induced diabetic Swiss albino mouse model assessed as serum insulin level at 0.2 mmol/Kg/day, po administered for 14 days by ELISA method (reference value: 16.37 +/- 0.62 uU/ml). The note with it: time 14 day. Format: functional.
Data set [7] in a line: Acute toxicity in Swiss albino mouse assessed as toxic symptoms up to 2000 mg/kg, po administered for 14 days. It counts as organism-based. The note with it: in vivo, 336 h, time 14 day.
A short description of data set [8]: Acute toxicity in Swiss albino mouse assessed as effect on motor alterations up to 2000 mg/kg, po administered for 14 days. Format: organism-based. Conditions: in vivo, 336 h, time 14 day.
Data set [9] in a line: Acute toxicity in Swiss albino mouse assessed as effect on behavioural change up to 2000 mg/kg, po administered for 14 days. Format: organism-based. The note with it: in vivo, 336 h, time 14 day.
For data set [10], the system named is Mus musculus. Put plainly: Antioxidant activity against high fat diet-STZ-induced diabetic Swiss albino mouse model assessed as serum SOD level at 0.2 mmol/Kg/day, po administered for 14 days (reference value: 273.01+/- 6.23 U/ml). It counts as functional. Conditions: time 14 day.
Data set [11] has as its system Mus musculus. Put plainly: Antidiabetic activity against high fat diet-STZ-induced diabetic Swiss albino mouse model assessed as reduction in blood glucose level at 0.2 mmol/Kg/day, po administered for 14 days. Format: functional. The note with it: time 14 day.
Data set [12] in a line: Toxicity in high fat diet-STZ-induced diabetic Swiss albino mouse model assessed as changes in body weight at 0.2 mmol/Kg/day, po administered for 14 days (reference value: 26.6 to 27.8 g). Format: organism-based. The note with it: in vivo, 336 h, time 14 day.
For data set [13], the system named is Mus musculus. Put plainly: Antioxidant activity against high fat diet-STZ-induced diabetic Swiss albino mouse model assessed as serum catalase level at 0.2 mmol/Kg/day, po administered for 14 days (reference value: 378.22+/- 14.45 U/ml). The note with it: time 14 day. Format: functional.
Data set [14] in a line: Acute toxicity in Swiss albino mouse assessed as effect on mortality up to 2000 mg/kg, po administered for 14 days. It counts as organism-based. Conditions: in vivo, 336 h, time 14 day.
Data set [15] is described as follows: Cytotoxicity against human WPE1-NA22 cells assessed as cell growth inhibition at 10 uM relative to control. It counts as toxicity, cell-based. Conditions: read-out: GI.
A short description of data set [16]: Cytotoxicity against human HCN-1A cells assessed as cell growth inhibition at 10 uM relative to control. Format: toxicity, cell-based. Conditions: read-out: GI.
The nature of data set [17]: Cytotoxicity against HEK293 cells assessed as cell growth inhibition at 10 uM relative to control. It counts as toxicity, cell-based. Conditions: human, read-out: GI.
Data set [18] in a line: Cytotoxicity against human ECT1/E6E7 cells assessed as cell growth inhibition at 10 uM relative to control. Conditions: read-out: GI. Format: toxicity, cell-based.
Data set [19] in a line: Cytotoxicity against human BJ cells assessed as cell growth inhibition at 10 uM relative to control. It counts as toxicity, cell-based. Conditions: read-out: GI.
The nature of data set [20]: Cytotoxicity against human MCF-10F cells assessed as cell growth inhibition at 10 uM relative to control. It counts as toxicity, cell-based. Conditions: read-out: GI.
A short description of data set [21]: Cytotoxicity against human MRC5 cells assessed as cell growth inhibition at 10 uM relative to control. It counts as toxicity, cell-based. The note with it: read-out: GI.
Data set [22] in a line: Cytotoxicity against human THLE-2 cells assessed as cell growth inhibition at 10 uM relative to control. It counts as toxicity, cell-based. The note with it: read-out: GI.

In the case of `CCOC(=O)C1=C(C)NC(C)=C(C(=O)OC(C)(C)C)C1c1cccc2c1OCO2` (centres undefined), the Activity in data set [1] is 0.25%; in data set [2] it was 1050.5 ng/mL; in data set [3], 20.99 nmol/mL; in [4], 403.17 pg/mL; in data set [5] it was less than 1%; in [6], 7.01 uU/ml. The Activity result in [7] was “Non-Toxic”; in [8], “Non-Toxic”; in data set [9], “Non-Toxic”; in data set [10] it was 175.14 U/ml; in [11], 223.65 mg/dL; in data set [12], 28.6 g. Further, the Activity is 183.21 U/ml in data set [13] and “Non-Toxic” in data set [14].
In the case of `C[C@H]1O[C@H](O[C@H]2[C@H](O)[C@@H](O)[C@@H](O[C@H]3[C@H](O)[C@@H](O)C(O)O[C@@H]3CO)O[C@@H]2CO)[C@H](O)[C@@H](O)[C@@H]1N[C@H]1C=C(CO)[C@@H](O)[C@H](O)[C@H]1O` (some centres undefined) [ACARBOSE], the inhibition at 10 µM came to 55.3% in data set [15]; 44.3% in [16]; 80.7% in data set [17]; 20.1% in data set [18]; 47.8% in [19]; 10.5% in [20]. In addition, the inhibition at 10 µM in [21] amounted to 32.3%; in [22], 19.1%.
Take `CC1=C(C(=O)OCc2ccccc2)C(c2cccc3c2OCO3)C(C(=O)OCc2ccccc2)=C(C)N1`: the Activity in data set [1] was 43.66%; in data set [5], 129%; in [7], “Non-Toxic”; in data set [8], “Non-Toxic”; in [9], “Non-Toxic”; in [11] it was 169.4 mg/dL. For the same compound, the Activity is listed as 27.3 g in [12] and “Non-Toxic” in data set [14].
For `COC(=O)C1=C(C)NC(C)=C(C(=O)OC(C)C)C1c1cccc2c1OCO2` (centres undefined), the Activity in data set [1] is 20.11%; in data set [5] it was 60%; in [7], “Non-Toxic”; in data set [8] it was “Non-Toxic”; in [9], “Non-Toxic”; in data set [11] it was 238.23 mg/dL. For the same compound, the Activity is 28.9 g in data set [12] and “Non-Toxic” in [14].
`CCOC(=O)C1=C(C)NC(C)=C(C(=O)OCCOC)C1c1ccc2c(c1)OCO2` (centres undefined): the Activity in [1] was 43.89%; in [5], 131%; in [7] it was “Non-Toxic”; in [8] it was “Non-Toxic”; in data set [9] it was “Non-Toxic”; in data set [11] it was 167.32 mg/dL. In addition, the Activity in data set [12] is listed as 27.2 g; in data set [14] it was “Non-Toxic”.
Regarding `CCOC(=O)C1=C(C)NC(C)=C(C(=O)OC)C1c1cccc2c1OCO2` (centres undefined) [OXODIPINE], the Activity is 63.65% in data set [1]; 190% in data set [5]; “Non-Toxic” in data set [7]; “Non-Toxic” in data set [8]; “Non-Toxic” in data set [9]; 108.4 mg/dL in [11]. The Activity is listed as 27.2 g in [12] and “Non-Toxic” in data set [14].
On to `COC(=O)C1=C(C)NC(C)=C(C(=O)OC)C1c1ccc2c(c1)OCCO2`, for which the Activity in [1] was 48.62%; in data set [5] it was 145%; in data set [7], “Non-Toxic”; in [8], “Non-Toxic”; in data set [9], “Non-Toxic”; in [11], 153.21 mg/dL. Moreover, the values for the Activity in data set [12] and in data set [14] were 27.3 g and “Non-Toxic”, respectively.
As for `CCOC(=O)C1=C(C)NC(C)=C(C(=O)OCCOC)C1c1cccc2c1OCO2` (centres undefined), the Activity is 44.89% in data set [1]; 134% in data set [5]; “Non-Toxic” in [7]; “Non-Toxic” in data set [8]; “Non-Toxic” in data set [9]; 164.33 mg/dL in [11]. The values for the Activity in data set [12] and in data set [14] were 27.2 g and “Non-Toxic”, respectively.
For `CCOC(=O)C1=C(C)NC(C)=C(C(=O)OC)C1c1ccc2c(c1)OCCO2` (centres undefined), the Activity in [1] is 50.49%; in data set [5] it was 151%; in data set [7], “Non-Toxic”; in data set [8], “Non-Toxic”; in data set [9], “Non-Toxic”; in data set [11], 147.34 mg/dL. Also, the Activity was 27.5 g in data set [12] and “Non-Toxic” in data set [14].
For `COC(=O)C1=C(C)NC(C)=C(C(=O)OC)C1c1cccc2c1OCO2`, the Activity in [1] was 61.63%; in data set [5], 184%; in data set [7], “Non-Toxic”; in data set [8], “Non-Toxic”; in data set [9], “Non-Toxic”; in data set [11], 114.42 mg/dL. Moreover, the Activity in data set [12] is given as 26.6 g; in [14], “Non-Toxic”.
Consider `COC(=O)C1=C(C)NC(C)=C(C(=O)OC)C1c1ccc2c(c1)Cc1ccccc1-2`, for which the Activity in data set [1] was 0.41%; in data set [5], 1%; in data set [7], “Non-Toxic”; in data set [8], “Non-Toxic”; in [9] it was “Non-Toxic”; in data set [11] it was 296.98 mg/dL. The Activity is listed as 29.2 g in data set [12] and “Non-Toxic” in [14].
In the case of `COC(=O)C1=C(C)NC(C)=C(C(=O)OCc2ccccc2)C1c1cccc2c1OCO2` (centres undefined), the Activity is 43.55% in data set [1]; 130% in data set [5]; “Non-Toxic” in data set [7]; “Non-Toxic” in data set [8]; “Non-Toxic” in data set [9]; 168.33 mg/dL in data set [11]. The Activity is 27.4 g in data set [12] and “Non-Toxic” in data set [14].
For the compound `CCOC(=O)C1=C(C)NC(C)=C(C(=O)OCC)C1c1ccc2c(c1)Cc1ccccc1-2`, the Activity in data set [1] was 0.42%; in [5] it was 1%; in data set [7], “Non-Toxic”; in data set [8], “Non-Toxic”; in [9] it was “Non-Toxic”; in [11], 296.94 mg/dL. Further, the Activity is given as 29.3 g in data set [12] and “Non-Toxic” in [14].
With `COC(=O)C1=C(C)NC(C)=C(C(=O)OC(C)(C)C)C1c1cccc2c1OCO2` (centres undefined), the Activity in data set [1] was 0.29%; in [5], less than 1%; in [7] it was “Non-Toxic”; in [8], “Non-Toxic”; in data set [9], “Non-Toxic”; in data set [11] it was 297.34 mg/dL. Besides, the results for the Activity in data set [12] and in [14] were 28.7 g and “Non-Toxic”, respectively.
With `CC1=C(C(=O)OC(C)C)C(c2ccc3c(c2)OCCO3)C(C(=O)OC(C)C)=C(C)N1`, the Activity is 0.34% in [1]; 1% in data set [5]; “Non-Toxic” in [7]; “Non-Toxic” in data set [8]; “Non-Toxic” in data set [9]; 297.19 mg/dL in data set [11]. In addition, the Activity in data set [12] is on record as 28.8 g; in [14], “Non-Toxic”.
Take `CC1=C(C(=O)OC(C)(C)C)C(c2cccc3c2OCO3)C(C(=O)OC(C)(C)C)=C(C)N1`: the Activity is 0.69% in data set [1]; less than 1% in [5]; “Non-Toxic” in [7]; “Non-Toxic” in data set [8]; “Non-Toxic” in data set [9]; 296.14 mg/dL in data set [11]. Also, the Activity in data set [12] was 29.3 g; in data set [14], “Non-Toxic”.
